This note sets out measurements from US8173635B2, “Kinase inhibitors” (Vertex Pharmaceuticals Incorporated, priority 2007, dated 2012).

Type in all cases: biochemical
The target in assay [1] is PKC theta kinase (Homo sapiens, UniProt Q04759). Description: PKC theta kinase inhibition, coupled-enzyme NADH absorbance assay (Ki). The note with it: 240 μM ATP, 18 nM PKC theta, 30° C.; read-out: Ki PKC theta. In a few lines:
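Enzyme and compound equilibrated 10 min at 30 °C before reaction in HEPES pH 7.5 buffer with MgCl2, NaCl, EDTA and Brij. Activity tracked as NADH loss at 340 nm through a coupled system. Initial-rate data fitted by non-linear regression to give Ki.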

Assay [2] addresses PKC delta kinase (Homo sapiens, UniProt Q05655). Description: PKC delta kinase inhibition, coupled-enzyme NADH absorbance assay (Ki). The following applies: 150 μM ATP, 46 nM PKC delta, 30° C.; read-out: Ki PKC delta. An outline of the steps:
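Assay buffer was 100 mM HEPES pH 7.5, 10 mM MgCl2, 25 mM NaCl, 0.1 mM EDTA, 0.01% Brij. Enzyme buffer was equilibrated with compound in DMSO for 10 min at 30 °C. Ki values were derived by non-linear regression of initial rate data.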

Assay [3] concerns the target PKC alpha kinase (Homo sapiens, UniProt P17252). Briefly: PKC alpha kinase inhibition, coupled-enzyme NADH absorbance assay (Ki). The following applies: 130 μM ATP, 4.5 nM PKC alpha, 30° C.; read-out: Ki PKC alpha.

Sequence of PKC theta kinase (Q04759 whole entry): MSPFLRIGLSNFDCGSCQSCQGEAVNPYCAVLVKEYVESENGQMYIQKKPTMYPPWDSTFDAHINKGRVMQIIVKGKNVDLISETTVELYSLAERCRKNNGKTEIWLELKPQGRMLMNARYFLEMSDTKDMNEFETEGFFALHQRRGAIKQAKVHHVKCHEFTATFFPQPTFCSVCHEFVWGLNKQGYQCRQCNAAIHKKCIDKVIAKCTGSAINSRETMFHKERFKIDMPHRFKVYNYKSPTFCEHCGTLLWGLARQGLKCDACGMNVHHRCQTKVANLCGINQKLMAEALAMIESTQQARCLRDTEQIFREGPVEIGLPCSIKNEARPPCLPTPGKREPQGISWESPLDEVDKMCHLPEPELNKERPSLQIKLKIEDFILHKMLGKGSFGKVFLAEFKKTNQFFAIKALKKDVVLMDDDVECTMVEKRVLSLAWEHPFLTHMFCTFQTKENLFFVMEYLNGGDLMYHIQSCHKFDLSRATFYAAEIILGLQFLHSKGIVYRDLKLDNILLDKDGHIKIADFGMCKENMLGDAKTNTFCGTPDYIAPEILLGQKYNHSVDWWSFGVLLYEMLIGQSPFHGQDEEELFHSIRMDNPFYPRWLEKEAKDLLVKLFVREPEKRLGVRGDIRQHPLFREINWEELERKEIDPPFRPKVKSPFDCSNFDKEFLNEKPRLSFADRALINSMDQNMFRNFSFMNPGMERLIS
Sequence of PKC delta kinase (Q05655 whole entry): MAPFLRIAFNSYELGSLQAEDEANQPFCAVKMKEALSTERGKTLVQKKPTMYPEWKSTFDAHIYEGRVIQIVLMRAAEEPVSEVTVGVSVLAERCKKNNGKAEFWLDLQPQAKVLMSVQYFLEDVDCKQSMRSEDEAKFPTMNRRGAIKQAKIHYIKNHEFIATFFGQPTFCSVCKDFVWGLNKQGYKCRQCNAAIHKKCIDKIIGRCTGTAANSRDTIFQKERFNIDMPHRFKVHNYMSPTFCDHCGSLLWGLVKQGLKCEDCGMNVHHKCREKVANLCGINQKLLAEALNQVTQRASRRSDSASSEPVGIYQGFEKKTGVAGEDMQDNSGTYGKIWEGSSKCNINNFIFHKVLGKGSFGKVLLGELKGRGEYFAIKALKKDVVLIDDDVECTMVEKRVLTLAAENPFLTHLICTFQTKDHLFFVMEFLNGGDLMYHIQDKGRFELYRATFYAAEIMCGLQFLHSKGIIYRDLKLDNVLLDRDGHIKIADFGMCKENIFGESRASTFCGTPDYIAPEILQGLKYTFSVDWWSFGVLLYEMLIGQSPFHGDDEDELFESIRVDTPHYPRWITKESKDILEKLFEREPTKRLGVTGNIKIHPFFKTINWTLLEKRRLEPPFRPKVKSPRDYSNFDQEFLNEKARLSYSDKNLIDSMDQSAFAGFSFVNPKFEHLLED

Turning to `CCSc1cc(-c2ccnc3[nH]ncc23)cc(C(C)(CC)CN)c1` (stereo not drawn) [Compound 166], the Ki in assay [1] is under 50 nM; in assay [2] it was under 2800 nM; in assay [3], under 500 nM.
Turning to `CC(O)c1cc(-c2ccnc3[nH]ncc23)cc(C(C)(C)C#N)c1` (stereo not drawn) [Compound 22], the Ki was under 500 nM in assay [1], over 2800 nM in assay [2] and over 2800 nM in assay [3].
Take `CCC(CN)c1cccc(-c2ccnc3[nH]nc(C(F)(F)F)c23)c1` (stereo not drawn) [Compound 281]: the Ki is under 50 nM in assay [1], under 50 nM in assay [2] and under 500 nM in assay [3].
In the case of `C#CCC(CC)(CN)c1cccc(-c2ccnc3[nH]ncc23)c1` (stereo not drawn) [Compound 178], the Ki in assay [1] was under 50 nM; in assay [2] it was under 500 nM; in assay [3], under 500 nM.
Turning to `COc1ccc(CC(C)(CN)c2cccc(-c3ccnc4[nH]ncc34)c2)cc1` (stereo not drawn) [Compound 174], the Ki in assay [1] is under 50 nM; in assay [2], under 500 nM; in assay [3] it was under 500 nM.
Take `CCC(C)(CN)c1cc(F)cc(-c2ccnc3[nH]nc(Cl)c23)c1` (stereo not drawn) [Compound 258]: the Ki in assay [1], in assay [2] and in assay [3] was under 50 nM each time.
As to `C/C=C\C1(c2cccc(-c3ccnc4[nH]ncc34)c2)CCNC1` (stereo not drawn) [Compound 197], the Ki in assay [1] was under 50 nM; in assay [2] it was under 500 nM; in assay [3], under 500 nM.
Regarding `CCC(C#N)c1cc(C)cc(-c2ccnc3[nH]ncc23)c1` (stereo not drawn) [Compound 86], the Ki in assay [1] is under 500 nM; in assay [2], over 2800 nM; in assay [3] it was under 2800 nM.
Take `C1=C(c2cccc(-c3ccnc4[nH]ncc34)c2)CCNC1` [Compound 216]: the results for the Ki in assay [1], in assay [2] and in assay [3] were under 500 nM, under 2800 nM and under 2800 nM, respectively.
Turning to `N#CC1(c2cc(-c3ccnc4[nH]ncc34)cc(C(F)(F)CCN)c2)CC1` [Compound 330], the Ki in assay [1] is under 50 nM; in assay [2], under 500 nM; in assay [3], under 500 nM.
With `CCC(C)(C#N)c1cc(CCCF)cc(-c2ccnc3[nH]ncc23)c1` (stereo not drawn) [Compound 107], the Ki in assay [1] is under 500 nM; in assay [2], over 2000 nM; in assay [3] it was under 2800 nM.
As to `NCC1(c2cccc(-c3ccnc4[nH]nc(C(F)(F)F)c34)c2)CC1` [Compound 278], the Ki was under 50 nM in assay [1], under 500 nM in assay [2] and under 500 nM in assay [3].
Take `N#CC1(c2cc(CCCN)cc(-c3ccnc4[nH]nc(C(F)(F)F)c34)c2)CC1` [Compound 283, 1-(3-(3-aminopropyl)-5-(3-(trifluoromethyl)-1H-pyrazolo[3,4-b]pyridin-4-yl)phenyl)cyclopropanecarbonitrile]: the Ki in assay [1] was under 50 nM; in assay [2], under 2800 nM; in assay [3], under 500 nM.
The like results for `OCc1cccc(-c2ccnc3[nH]ncc23)c1` [Compound 322] were, in that order, over 700 nM, over 1200 nM and over 1200 nM.
With `CCC(C)(CNC)c1cccc(-c2ccnc3[nH]ncc23)c1` (stereo not drawn) [Compound 141], the values for the Ki in assay [1], in assay [2] and in assay [3] were under 50 nM, under 500 nM and under 500 nM, respectively.
With `CCC(C)(CN)c1cc(CCCO)cc(-c2ccnc3[nH]nc(Cl)c23)c1` (stereo not drawn) [Compound 208], the Ki is under 50 nM in assay [1], under 500 nM in assay [2] and under 500 nM in assay [3].
As to `COCC[C@](C)(CN)c1cccc(-c2ccnc3[nH]nc(C(F)(F)F)c23)c1` [Compound 287], the Ki in assay [1] was under 50 nM; in assay [2], under 2800 nM; in assay [3], under 500 nM.
For `COCCC(C)(C#N)c1cccc(-c2ccnc3[nH]ncc23)c1` (stereo not drawn) [Compound 96], the figures for the Ki in assay [1], in assay [2] and in assay [3] were under 2800 nM, over 2800 nM and over 2800 nM, respectively.
In the case of `CC(CN)(c1cccc(-c2ccnc3[nH]ncc23)c1)C1CCCC1` (stereo not drawn) [Compound 46], the Ki in assay [1] was under 50 nM; in assay [2], under 500 nM; in assay [3], under 500 nM.
`CC(C)C(C)(C#N)c1cccc(-c2ccnc3[nH]ncc23)c1` (stereo not drawn) [Compound 70]: the Ki in assay [1] was under 500 nM; in assay [2], under 2800 nM; in assay [3], under 2800 nM.
Consider `CCc1cc(-c2ccnc3[nH]ncc23)cc(C(C)(C)C#N)c1` [Compound 62], for which the Ki in assay [1] is under 50 nM; in assay [2] it was over 2800 nM; in assay [3], under 2800 nM.
As to `C=CCC(C)(C#N)c1cccc(-c2ccnc3[nH]ncc23)c1` (stereo not drawn) [Compound 90], the Ki in assay [1] was under 500 nM; in assay [2], under 2800 nM; in assay [3], under 2800 nM.
As to `N[C@H]1CCC[C@@H]1c1cccc(-c2ccnc3[nH]ncc23)c1` [Compound 251], the values for the Ki in assay [1], in assay [2] and in assay [3] were under 500 nM, over 1200 nM and over 1200 nM, respectively.
Take `CCC(C)(C#N)c1cc(CCCOC)cc(-c2ccnc3[nH]ncc23)c1` (stereo not drawn) [Compound 109]: the Ki in assay [1] is under 500 nM; in assay [2] it was over 2000 nM; in assay [3] it was under 2800 nM.
`CCC(C)(C#N)c1cc(-c2ccnc3[nH]ncc23)cc(C(C)(F)F)c1` (stereo not drawn) [Compound 111]: the figures for the Ki in assay [1], in assay [2] and in assay [3] were under 50 nM, under 2800 nM and under 500 nM, respectively.
Regarding `Cc1n[nH]c2nccc(-c3cc(F)cc(C4(CN)CCC4)c3)c12` [Compound 262], the Ki is under 50 nM in assay [1], under 500 nM in assay [2] and under 500 nM in assay [3].
With `N#CC1(c2cc(CCO)cc(-c3ccnc4[nH]ncc34)c2)CC1` [Compound 114], the Ki in assay [1] was under 50 nM; in assay [2], over 2000 nM; in assay [3], over 1200 nM.
The like results for `NC[C@]1(c2cccc(-c3ccnc4[nH]ncc34)c2)CC[C@@H](O)CC1` [Compound 182] were, in that order, under 500 nM, under 2800 nM and over 1200 nM.
On to `NCC1(c2cccc(-c3ccnc4[nH]nc(Cl)c34)c2)CCOCC1` [Compound 206], for which the Ki in assay [1] is under 50 nM; in assay [2], under 500 nM; in assay [3] it was under 500 nM.
With `CCC(C)(CN)c1cc(CC(F)(F)F)cc(-c2ccnc3[nH]ncc23)c1` (stereo not drawn) [Compound 163], the Ki in assay [1] is under 500 nM; in assay [2], over 2000 nM; in assay [3] it was over 1200 nM.
Consider `CCC(C)(C#N)c1cc(-c2ccnc3[nH]ncc23)cc(C(F)(F)CC2CCCCC2)c1` (stereo not drawn) [Compound 119], for which the Ki in assay [1] was over 700 nM; in assay [2] it was over 2000 nM; in assay [3] it was over 1200 nM.
In the same order, the values of `CCC(F)c1cc(-c2ccnc3[nH]ncc23)cc(C(C)(C#N)CC)c1` (stereo not drawn) [Compound 106] are under 500 nM, over 2000 nM and under 2800 nM.
Consider `CCc1n[nH]c2nccc(-c3cc(C)cc(C4(CN)CC4)c3)c12` [Compound 265], for which the Ki in assay [1] is under 50 nM; in assay [2], under 500 nM; in assay [3] it was under 500 nM.
With `CC(C)(C#N)c1cc(-c2ccnc3[nH]ncc23)cc(N2CCC2)c1` [Compound 11], the Ki is under 500 nM in assay [1], over 2800 nM in assay [2] and over 2800 nM in assay [3].
As for `CCC(C)(C#N)c1cc(/C=C/C#N)cc(-c2ccnc3[nH]ncc23)c1` (stereo not drawn) [Compound 124], the Ki in assay [1] was over 700 nM; in assay [2], over 2000 nM; in assay [3] it was over 1200 nM.
As to `CCC(C)(CN)c1cccc(-c2ccnc3[nH]nc(Cl)c23)c1` (stereo not drawn) [Compound 204, 2-(3-(3-chloro-1H-pyrazolo[3,4-b]pyridin-4-yl)phenyl)-2-methylbutan-1-amine], the Ki in assay [1], in assay [2] and in assay [3] was under 50 nM throughout.
With `CC(C)(C#N)c1cc(NCCCN)cc(-c2ccnc3[nH]ncc23)c1` [Compound 21], the Ki is under 500 nM in assay [1], over 2800 nM in assay [2] and over 2800 nM in assay [3].
With `NCC1(c2cc(F)cc(-c3ccnc4[nH]nc(Br)c34)c2)CCC1` [Compound 261], the Ki in assay [1], in assay [2] and in assay [3] was under 50 nM each time.
As for `N#CC1(c2cccc(-c3ccnc4[nH]nc(C(F)(F)F)c34)c2)CC1` [Compound 273], the Ki in assay [1] was under 50 nM; in assay [2], under 500 nM; in assay [3], under 500 nM.
In the case of `NCC1(c2cc(F)cc(-c3ccnc4[nH]nc(C(F)(F)F)c34)c2)CCOCC1` [Compound 276], the values for the Ki in assay [1], in assay [2] and in assay [3] were under 50 nM, under 2800 nM and under 500 nM, respectively.
As to `CCC(C)(C#N)c1cc(Cl)cc(-c2ccnc3[nH]ncc23)c1` (stereo not drawn) [Compound 87], the figures for the Ki in assay [1], in assay [2] and in assay [3] were under 500 nM, under 2800 nM and under 2800 nM, respectively.
Take `N#CC1(c2cccc(-c3ccnc4[nH]nc(Cl)c34)c2)CC1` [Compound 205]: the Ki in assay [1] is under 50 nM; in assay [2], under 50 nM; in assay [3], under 500 nM.
Regarding `CC(CN)(Cc1ccncc1)c1cccc(-c2ccnc3[nH]ncc23)c1` (stereo not drawn) [Compound 172], the Ki was under 50 nM in assay [1], under 500 nM in assay [2] and under 2800 nM in assay [3].
For the compound `NCC1(c2cccc(-c3ccnc4[nH]ncc34)c2)CC(F)(F)C1` [Compound 235], the Ki in assay [1] is under 50 nM; in assay [2], under 500 nM; in assay [3], over 1200 nM.
Turning to `CC(C#N)(CC(F)F)c1cccc(-c2ccnc3[nH]ncc23)c1` (stereo not drawn) [Compound 99], the Ki is under 500 nM in assay [1], under 2800 nM in assay [2] and under 2800 nM in assay [3].
Regarding `CCC1(c2cc(C)cc(-c3ccnc4[nH]ncc34)c2)CNC(=O)O1` (stereo not drawn) [Compound 228], the Ki in assay [1] is under 50 nM; in assay [2], under 2800 nM; in assay [3], under 500 nM.
